Reference: publication PMC9574860, “Chemical Toolkit for PARK7: Potent, Selective, and High-Throughput” (Journal of Medicinal Chemistry, 2022)

Experiments:
[1] = target: T1, UCHL1 (Homo sapiens, UniProt P09936); experiment: Gel-based competition assay with probe 8RK59, UCHL1 band; type: biochemical; details: compound 2 μM, 1 h; PARK7 and UCHL1 1 μM each; then 8RK59 2 μM 30 min; Figure 3B
T1 sequence (P09936 1-223): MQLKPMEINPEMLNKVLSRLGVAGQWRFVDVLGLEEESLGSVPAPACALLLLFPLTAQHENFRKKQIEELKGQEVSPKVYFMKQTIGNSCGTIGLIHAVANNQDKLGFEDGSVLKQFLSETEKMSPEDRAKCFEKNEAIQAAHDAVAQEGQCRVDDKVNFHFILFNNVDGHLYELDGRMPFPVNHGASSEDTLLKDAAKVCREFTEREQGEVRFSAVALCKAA
Method: (§1) To assess the inhibitory potency and selectivity of these compounds toward PARK7 and UCHL1, we performed a gel-based competition assay (Figure 3A).[36] A mixture of equal amounts of PARK7 and UCHL1 (1 μM) was treated with each of the synthesized compounds (2 μM) for 1 h, followed by incubation with fluorescent probe 8RK59 (2 μM) for 30 min. Samples were resolved by SDS-PAGE, and the gel was scanned for fluorescence. Inhibition of PARK7 or UCHL1 is reflected by the disappearance of their corresponding bands (Figure 3B). […] The inhibition potential of JYQ-88 against PARK7 was assessed in a similar assay where PARK7 was incubated with a serial dilution of JYQ-88 before treatment with probe 8RK59 (Figure 3C). A clear inhibition is visible at 0.5 μM, and full inhibition is achieved between 1 and 2 μM. […] The selectivity of JYQ-88 between UCHL1 and PARK7 was further confirmed in a direct competition assay between equal amounts of PARK7 and UCHL1 (Figure 3F). PARK7 inhibition was observed starting from 0.5 μM JYQ-88, whereas inhibition of UCHL1 was only detected at 20 μM. Since JYQ-88 and 8RK64 are enantiomers, we assumed that the interactions with PARK7 should be similar. To investigate how the chiral center influences the selectivity, we solved the crystal structure of the PARK7−JYQ-88 complex with 1.42 Å resolution (Figure 3G, Table S1, PDB 7PA3). The global positioning of the inhibitor in between the two α-helices was similar to that for 8RK64. […] This way, the thiazolo-pyridine part of JYQ-88 is bound in a similar manner as 8RK64 and the earlier observed interactions are largely the same. The formation of the isothiourea moiety, stabilized by the interaction with Glu18, and the interaction between the thiazole amine and the amide NH2 of the Asn76 side chain are still present. However, the interaction between the azidoacetyl carbonyl with the Leu128 backbone carbonyl can no longer be observed due to the rotation of the azidoacetyl moiety. The Lys132 residue also seems to have rotated (compared to Figure 2C).
(§2) The assay was performed in Tris buffer as described above.

[2] = target: T2, PARK7 (Homo sapiens, UniProt Q99497); experiment: Gel-based competition assay with probe 8RK59, PARK7 band; type: biochemical; parameters: GST (N, cleaved yes); made in house; host or cells: E. coli BL21(DE3) Rosetta2; details: compound 2 μM, 1 h; PARK7 and UCHL1 1 μM each; then 8RK59 2 μM 30 min; Figure 3B
T2 sequence (Q99497 1-189): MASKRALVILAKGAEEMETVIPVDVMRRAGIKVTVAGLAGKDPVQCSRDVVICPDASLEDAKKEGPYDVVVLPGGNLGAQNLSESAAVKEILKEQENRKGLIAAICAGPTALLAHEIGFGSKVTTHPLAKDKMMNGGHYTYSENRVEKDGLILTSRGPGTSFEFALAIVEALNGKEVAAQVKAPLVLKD
Method: as §1, §2

[3] = target: T2, PARK7; experiment: FP assay with Rhodamine110 probe JYQ-107 (IC50 and hit validation); type: binding; parameters: GST (N, cleaved yes); made in house; host or cells: E. coli BL21(DE3) Rosetta2; details: increasing concentrations, 60 min preincubation; Figure S7
Method: The assay was performed using the conditions as described above with a reaction volume of 20 μL per well in triplicate. Stock solutions of JYQ-88 of 1 and 0.1 mM were prepared. […] The FP signal was monitored with a BMG Labtech PHERAstar plate reader (λex/em 480/520 nm) for 2 h.
The validation was performed using the conditions as described above with a reaction volume of 20 μL per well in triplicate. […] The FP signal was monitored with a BMG Labtech PHERAstar plate reader (λex/em 480/520 nm) for 2 h. The relative loss of FP signal compared with reference controls was used to calculate the remaining enzyme activity. Inhibition percentage of these 40 compounds was plotted as a heatmap using GraphPad Prism 9.0.1 software. Color gradients indicate inhibition percentage, no inhibiton (white) and full inhibition (blue).

[4] = target: T1, UCHL1; experiment: UCHL1 activity assay (Ub-Rho-Morpholine or Ub-AMC substrate); type: biochemical; details: UCHL1 1 nM, 1 h preincubation; read-out: UbRhoMP assay UCHL1 IC50
Method: The assay was performed in a buffer containing 50 mM Tris·HCl, 100 mM NaCl at pH 7.5, 2.0 mM cysteine, 1 mg/mL 3-[(3-cholamidopropyl)dimethylammonio]propanesulfonic acid (CHAPS), and 0.5 mg/mL bovine serum albumin and conducted in a 384-well plate (Corning 3820) with a reaction volume 20 μL in triplicate. The compounds were dissolved in DMSO as 10, 1, and 0.1 mM stock solutions and were transferred to obtain a 12-point serial dilution of 0.05 to 200 μM. Next, UCHL1 (15 μL, final concentration of 1 nM) was dispensed with a Biotek MultiFlowFX liquid dispenser and incubated for 1 h, followed by dispensing the substrate Ub-Rho-Morpholine or Ub-AMC (5 μL, final concentration of 400 nM). The FI signal was monitored with a BMG Labtech PHERAstar plate reader (λex/em 487/535 nm or λex/em 350/450 nm) for 1 h. N-Ethylmaleimide (NEM, 10 mM) was used as a positive control (100% inhibition), and DMSO was used as a negative control (0% inhibition). All samples were normalized to the positive and negative controls and plotted against the inhibitor concentrations (in μM) using the built-in equation “[inhibitor] vs response – variable slope (four parameters), least-squares fit” with constraints “Bottom = 0” and “Top = 100” in GraphPad Prism 9.0.1 software to obtain the IC50 values.

[5] = target: T2, PARK7; experiment: Probe labeling of purified recombinant PARK7 (SDS-PAGE, fluorescence scanning); type: binding; parameters: GST (N, cleaved yes); made in house; host or cells: E. coli BL21(DE3) Rosetta2; details: purified PARK7 1 μM, 1 h 37 °C; Figure 4A
Source text: PARK7 inhibitor JYQ-88 was further converted into activity-based probes by installing SulfoCy5, Rhodamine110, or BodipyFL. We took advantage of the azide moiety in JYQ-88 and conjugated alkyne versions of these dyes using the copper(I)-catalyzed azide alkyne cycloaddition (CuAAC) to obtain compounds JYQ-92, JYQ-93, and JYQ-107 (Scheme 2). We next investigated the ability of the probes to label and visualize PARK7. […] The SulfoCy5 probe JYQ-92 and Rhodamine110 probe JYQ-107 labeled PARK7 already at 1 μM, while the BodipyFL probe JYQ-93 was less efficient than the other probes as PARK7 labeling was only observed from 5 μM.
All the labeling assays were performed in Tris buffer (50 mM Tris–HCl, 150 mM NaCl, 2 mM TCEP, pH 7.5). For labeling with the 8RK59 probe, 1 μM final concentrations of UCHL1 and PARK7 were individually or together incubated with 2 μM final concentrations of 8RK59 for 30 min at 37 °C, followed by protein visualization. For labeling with JYQ-92, JYQ-93, and JYQ-107, 1 μM final concentration of PARK7 was incubated with different concentrations (0, 0.1, 0.5, 1, 2, 5, and 10 μM) of the indicated probes for 1 h at 37 °C. […] These samples were resolved by SDS-PAGE using precast Bis-Tris gels (Invitrogen, NuPAGE) with MES SDS running buffer (Novex, NuPAGE).

[6] = target: T2, PARK7; experiment: High-throughput FP screen of covalent fragment library with JYQ-107; type: binding; parameters: GST (N, cleaved yes); made in house; host or cells: E. coli BL21(DE3) Rosetta2; details: HTS, 100 μM compound, PARK7 0.2 μM, 2 h preincubation, JYQ-107 20 nM, 1536-well
Method: The screen was conducted using the conditions as described above in 1536-well plates (Corning 3724) with a reaction volume of 8 μL per well. The compound library containing 7887 covalent fragments was purchased at Enamine Ltd. and received as 100 mM DMSO stocks in 384 well LDV Echo plates (Labcyte LP-0200). Stock solutions of 0.26 μM PARK7 and 80 nM JYQ-107 were prepared. Using a Labcyte Echo550 acoustic dispenser, 8 nL of the DMSO stock solution of the library compounds was transferred from the source plates into the empty 1536-well screening plates to obtain a 100 μM final compound concentration. Next, PARK7 (6 μL, final concentration 0.2 μM) was dispensed using a Biotek MultiflowFX liquid dispenser and incubated for 2 h, followed by dispensing the probe JYQ-107 (2 μL, final concentration 20 nM). After 2 h incubation, the FP signal was recorded on a BMG Labtech PHERAstar plate reader (λex/em 480/520 nm). The relative loss of FP signal compared with reference controls was used to calculate the remaining enzyme activity.

| Compound | Inhibition of UCHL1 (disappearance of 8RK59-labeled band) [1] | Inhibition of PARK7 (disappearance of 8RK59-labeled band) [2] | Inhibition % [6] [%] | other results |
| --- | --- | --- | --- | --- |
| N#CN1CC[C@H](C(=O)Nc2nc3c(s2)CN(C(=O)c2cn(CC4CCCO4)nn2)CC3)C1 (stereo partly drawn) [JYQ-55, (3S)-1-Cyano-N-(5-(1-((tetrahydrofuran-2-yl)methyl)-1H-1,2,3-triazole-4-carbonyl)-4,5,6,7-tetrahydrothiazolo[5,4-c]pyridin-2-yl)pyrrolidine-3-carboxamide] | hardly show any inhibition | hardly show any inhibition | – | Inhibition of PARK7 in FP assay [3]: no inhibition |
| N#CN1CC[C@H](C(=O)Nc2nc3c(s2)CN(C(=O)CCCCBr)CC3)C1 [JYQ-78, (S)-N-(5-(5-Bromopentanoyl)-4,5,6,7-tetrahydrothiazolo[5,4-c]pyridin-2-yl)-1-cyanopyrrolidine-3-carboxamide] | fully inhibit | less efficiently | – | – |
| CN1C(=O)CC(C(=O)N2CCc3nc(NC(=O)[C@H]4CCN(C#N)C4)sc3C2)[C@@H]1c1cccnc1 (stereo partly drawn) [JYQ-79, (3S)-1-Cyano-N-(5-((2R)-1-methyl-5-oxo-2-(pyridin-3-yl)pyrrolidine-3-carbonyl)-4,5,6,7-tetrahydrothiazolo[5,4-c]pyridin-2-yl)pyrrolidine-3-carboxamide] | fully inhibit | less efficiently | – | – |
| CC1=CC(C)=[N+]2C1=C(CCCCc1cn(CC(=O)N3CCc4nc(NC(=O)[C@@H]5CCN(C#N)C5)sc4C3)nn1)c1c(C)cc(C)n1[B-]2(F)F [JYQ-93] | – | – | – | IC50 [4]: 23 µM; Probe concentration from which PARK7 labeling was observed [5]: 5 µM |
| O=C(NC1CCN(Cc2ccccc2)CC1)n1ccnc1 [Z319217184, N-(1-benzylpiperidin-4-yl)-1H-imidazole-1-carboxamide] | – | – | 1.56 | – |
| CC1(C)CN(C(=O)CC2OCCCO2)CC2(CCCC2)O1 [Z1953185127, 1-{7,7-dimethyl-6-oxa-9-azaspiro[4.5]decan-9-yl}-2-(1,3-dioxan-2-yl)ethan-1-one] | – | – | 1.97 | – |
| NCC1CCN(C(=O)C=Cc2ccc(Cl)s2)C1 (stereo not shown) [Z2242910917, 1-[3-(aminomethyl)pyrrolidin-1-yl]-3-(5-chlorothiophen-2-yl)prop-2-en-1-one] | – | – | -0.36 | – |
| C#CC(=O)N1CCc2cc(C(=O)O)ccc21 [Z3227873366, 1-(prop-2-ynoyl)-2,3-dihydro-1H-indole-5-carboxylic acid] | – | – | 1.76 | – |
| N#CC=Cc1cccc2cccnc12 [Z3236183481, 3-(quinolin-8-yl)prop-2-enenitrile] | – | – | -0.97 | – |
| (3S)-N-(5-((1S,2R,5R)-Adamantane-2-carbonyl)-4,5,6,7-tetrahydrothiazolo[5,4-c]pyridin-2-yl)-1-cyanopyrrolidine-3-carboxamide [JYQ-83] | hardly show any inhibition | hardly show any inhibition | – | – |
